The target in this test is T1, cPLA2 (Homo sapiens, UniProt P47712).
T1 sequence (P47712 1-749): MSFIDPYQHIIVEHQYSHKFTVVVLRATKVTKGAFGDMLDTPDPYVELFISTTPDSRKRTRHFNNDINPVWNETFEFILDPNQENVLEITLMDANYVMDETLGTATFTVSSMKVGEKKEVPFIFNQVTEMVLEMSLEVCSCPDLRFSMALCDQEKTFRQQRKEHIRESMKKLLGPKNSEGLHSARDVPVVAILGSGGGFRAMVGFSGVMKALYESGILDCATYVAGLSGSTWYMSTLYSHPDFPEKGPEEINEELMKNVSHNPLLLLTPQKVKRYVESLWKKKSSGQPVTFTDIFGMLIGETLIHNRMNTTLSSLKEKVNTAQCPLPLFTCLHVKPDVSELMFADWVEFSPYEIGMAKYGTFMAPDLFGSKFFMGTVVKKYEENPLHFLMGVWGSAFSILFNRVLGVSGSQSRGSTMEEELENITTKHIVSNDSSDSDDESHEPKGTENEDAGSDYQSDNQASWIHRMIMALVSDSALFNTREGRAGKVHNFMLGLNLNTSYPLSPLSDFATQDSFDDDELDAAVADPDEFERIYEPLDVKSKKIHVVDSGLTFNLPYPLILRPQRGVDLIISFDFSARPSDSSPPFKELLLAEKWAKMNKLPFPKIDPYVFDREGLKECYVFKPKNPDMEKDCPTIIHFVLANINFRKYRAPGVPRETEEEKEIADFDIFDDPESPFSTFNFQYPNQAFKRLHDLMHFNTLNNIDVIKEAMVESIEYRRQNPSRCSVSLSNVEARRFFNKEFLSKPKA
Kind of test: Coumarine Assay. The format is biochemical. The following applies: 60 μM 7-hydroxycoumarinyl 6-heptenoate substrate, 4 μg cPLA2, pH 7.5, fluorescence ex 360 nm / em 460 nm; read-out: Coumarin IC50.

Take `O=C(O)c1ccc(CCCc2c(CCNS(=O)(=O)Cc3ccc(Cl)c(Cl)c3)n(C(c3ccccc3)c3ccccc3)c3ccccc23)cc1` [Example 127, 4-{3-[1-benzhydryl-2-(2-{[(3,4-dichlorobenzyl)sulfonyl]amino}ethyl)-1H-indol-3-yl]propyl}benzoic acid]: the IC50 was found to be 200 nM.
The value for `O=C(O)c1ccc(OCCc2c(CCNS(=O)(=O)CCNc3ccccc3)n(C(c3ccccc3)c3ccccc3)c3ccc(Cl)cc23)cc1` [Example 89, 4-(2-{1-Benzhydryl-5-chloro-2-[2-(2-phenylamino-ethanesulfonylamino)-ethyl]-1H-indol-3-yl}-ethoxy)-benzoic acid] was 380 nM.
In the case of `CC1(C)C2CC[C@]1(CS(=O)(=O)NCCc1c(CCOc3ccc(C(=O)O)cc3)c3cc(Cl)ccc3n1C(c1ccccc1)c1ccccc1)C(=O)C2` [Example 6, 4-[2-(1-Benzhydryl-5-chloro-2-{2-[({[(1R)-7,7-dimethyl-2-oxobicyclo[2.2.1]hept-1-yl]methyl}sulfonyl)amino]ethyl}-1H-indol-3-yl)ethoxy]benzoic acid] it was 2000 nM.
The value for `O=C(O)c1ccc(CCCc2c(CCNS(=O)(=O)Cc3ccccn3)n(C(c3ccccc3)c3ccccc3)c3ccc(Cl)cc23)cc1` [Example 61, 4-{3-[1-benzhydryl-5-chloro-2-(2-{[(2-pyridinylmethyl)sulfonyl]amino}ethyl)-1H-indol-3-yl]propyl}benzoic acid] was 340 nM; that for `O=C(O)c1ccc(OCCc2c(CCNS(=O)(=O)Cc3ccc(F)cc3)n(C(c3ccccc3)c3ccccc3)c3ccc(Cl)cc23)cc1` [Example 14, 4-{2-[1-Benzhydryl-5-chloro-2-(2-{[(4-fluorobenzyl)sulfonyl]amino}-ethyl)-1H-indol-3-yl]ethoxy}benzoic acid] was 800 nM.
Regarding `O=C(O)c1ccc(CCCc2c(CCNS(=O)(=O)Cc3cccc(C(F)(F)F)c3)n(C(c3ccccc3)c3ccccc3)c3ccc(Cl)cc23)cc1` [Example 59, 4-(3-{1-benzhydryl-5-chloro-2-[2-({[3-(trifluoromethyl)benzyl]sulfonyl}amino)ethyl]-1H-indol-3-yl}propyl)benzoic acid], the IC50 was found to be 290 nM.
Regarding `O=C(O)c1ccc(OCCc2c(CCNS(=O)(=O)Cc3ccc(Cl)c(Cl)c3)n(C(c3ccccc3)c3ccccc3)c3cc(Cl)ccc23)cc1` [Example 106, 4-(2-{1 -Benzhydryl-6-chloro-2-[2-(3,4-dichloro-phenylmethanesulfonylamino)-ethyl]-1H-indol-3-yl}-ethoxy)-benzoic acid], the IC50 was found to be 220 nM.
Regarding `O=C(O)c1ccc(OCCc2c(CCNS(=O)(=O)Cc3ccc(C(F)(F)F)cc3)n(C(c3ccccc3)c3ccccc3)c3ccc(Cl)cc23)cc1` [Example 13], the IC50 came to 640 nM.
In the case of `COc1ccc(OC)c(SCS(=O)(=O)NCCc2c(CCOc3ccc(C(=O)O)cc3)c3cc(Cl)ccc3n2C(c2ccccc2)c2ccccc2)c1` [Example 121, 4-(2-{1-benzhydryl-5-chloro-2-[2-(2,5-dimethoxy-phenylsulfanylmethanesulfonylamino)-ethyl]-1H-indol-3-yl}-ethoxy)-benzoic acid] it was 460 nM; in that of `O=C(O)c1ccc(OCCc2c(CCNS(=O)(=O)CCN3CCOCC3)n(C(c3ccccc3)c3ccccc3)c3ccc(Cl)cc23)cc1` [Example 87, 4-(2-{1-Benzhydryl-5-chloro-2-[2-(2-morpholin-4-ylethanesulfonylamino)-ethyl]-1H-indol-3-yl}-ethoxy)-benzoic acid], 1200 nM.
Consider `N#Cc1ccccc1CS(=O)(=O)NCCc1c(CCOc2ccc(C(=O)O)cc2)c2cc(Cl)ccc2n1C(c1ccccc1)c1ccccc1` [Example 108, 4-{2-[1-Benzhydryl-5-chloro-2-(2-{[(2-cyanobenzyl)sulfonyl]amino}ethyl)-1H-indol-3-yl]ethoxy}benzoic acid], for which the 50% inhibitory concentration (IC50) turned out to be 150 nM.
In the case of `O=C(O)c1ccc(OCCc2c(CCNS(=O)(=O)CCN3CCNC3=S)n(C(c3ccccc3)c3ccccc3)c3ccc(Cl)cc23)cc1` [Example 97, 4-(2-{1-benzhydryl-5-chloro-2-[2-({[2-(2-thioxo-1-imidazolidinyl)ethyl]sulfonyl}amino)ethyl]-1H-indol-3-yl}ethoxy)benzoic acid] it was 950 nM; in that of `O=C(O)c1ccc(OCCc2c(CCNS(=O)(=O)Cc3c(F)cccc3[N+](=O)[O-])n(C(c3ccccc3)c3ccccc3)c3ccc(Cl)cc23)cc1` [Example 72, 4-{2-[1-Benzhydryl-5-chloro-2-(2-{[(2-fluoro-6-nitrobenzyl)sulfonyl]amino}ethyl)-1H-indol-3-yl]ethoxy)benzoic acid], 280 nM; in that of `O=C(O)c1ccc(OCCc2c(CCNS(=O)(=O)CCN3CCC(O)C3)n(C(c3ccccc3)c3ccccc3)c3ccc(Cl)cc23)cc1` (stereo not drawn) [Example 122, 4-[2-(1-benzhydryl-5-chloro-2-{2-[2-(3-hydroxy-pyrrolidine-1-yl)-ethanesulfonylamino]-ethyl}-1H-indol-3-yl)-ethoxy]-benzoic acid], 2500 nM.
As for `O=C(O)c1ccc(OCCc2c(CCNS(=O)(=O)Cc3cccc(Cl)c3Cl)n(C(c3ccccc3)c3ccccc3)c3ccc(Cl)cc23)cc1` [Example 29, 4-{2-[1-benzhydryl-5-chloro-2-(2-{[(2,3-dichlorobenzyl)sulfonyl]amino}ethyl)-1H indol-3-yl]ethoxy}benzoic acid], the IC50 amounted to 190 nM.

The IC50 is the concentration that gives 50% inhibition.

The record behind these values is US6635771B2, “N-benzhydryl indole compounds” (Wyeth, priority 2001, dated 2003).
